{"source": "paper PMC12562276", "about": "“Effects of Intramuscular Vasopressin on Pharmacokinetics and Pharmacodynamics in Healthy Neonatal Piglets: A Dose–Response Study” (Children, 2025)", "key": {"[1]": {"system": "isolated working rat heart", "conditions": "during normoxia (not during hypoxia); cited from earlier work", "text": "Through its vasoconstrictor effects, vasopressin increases SVR, thereby increasing arterial blood pressure. […] In an anesthetized open-chest dog model, Nakano administered various doses of vasopressin and reported a dose-related relationship between increasing doses and r ..."}, "healthy neonatal piglets [2]": {"system": "healthy neonatal piglets", "test": "Autopsy of IM injection sites for local tissue damage", "format": "in vivo", "conditions": "autopsies post-euthanasia; IM 4 or 8 IU/kg, left inner thigh muscle", "experimental": "(§1) Following surgical instrumentation and stabilization, a consecutively numbered, sealed brown envelope containing the group allocation was opened (Figure 1). Piglets were randomized into three groups: 0.4 IU/kg IV vasopressin 4 IU/kg IM vasopressin, or 8 IU/kg IM vasopressin. Piglets that were randomized to “IM” were administered one dose intramuscularly in the left inner thigh muscle while piglets randomized to “IV” were administered one dose via the femoral venous catheter followed with a 3 mL normal saline bolus. Arterial blood was collected before drug administration (baseline = time point “0 min”), 1, 2, 3, 4, 5, and 10 min after drug administration. Following final collection of blood, piglets were euthanized with an intravenous overdose of sodium pentobarbital and autopsies of IM injection sites were conducted to assess local tissue damage […]."}, "dogs": {"system": "dogs", "conditions": "IV vasopressin, cited from earlier work", "text": "In the current study, we determined the optimal IM vasopressin dose to be 8 IU/kg, as there were significant changes in hemodynamics and left ventricular contractile function following its administration, while there were little to no hemodynamic changes following 4 IU/kg IM vasopressin administration. […] Even if IV access can be achieved before two minutes, IV concentra ..."}, "healthy neonatal piglets [3]": {"system": "healthy neonatal piglets", "test": "Hemodynamic and cardiac function parameters after IV or IM vasopressin", "format": "in vivo", "conditions": "for Changes in hemodynamic parameters: n = 5", "experimental": "Piglets were instrumented as previously described with modifications. Following induction of anesthesia using isoflurane, piglets underwent a tracheostomy for intubation. Pressure-controlled ventilation (Sechrist Infant Ventilator Model IV-100; Sechrist Industries, Anaheim, CA, USA) was commenced at a respiratory rate of 16–20 breaths/min and pressure of 20/5 cmH2O. Oxygen saturation was maintained within 90–100%, while glucose was provided via an IV infusion of 5% dextrose at 10 mL/kg/hr. IV propofol (5–10 mg/kg/h) and morphine (0.1 mg/kg/h) were provided to maintain anaesthesia, and additional IV doses of propofol (1–2 mg/kg) and morphine (0.05–0.1 mg/kg) were administered as needed (i.e., to maintain adequate sedation/pain medication as determined by movement/pain response). Piglets’ normothermic body temperature of 38.5–39.5 °C was maintained with a heating pad and overhead warmer.\n5-French Argyle® (Klein-Baker Medical Inc. San Antonio, TX, USA) double-lumen and single-lumen catheters were inserted via the right femoral vein and artery, respectively. The femoral venous catheter was used for administration of fluids and medications and the arterial catheter for continuous arterial blood pressure monitoring in addition to arterial blood gas measurements. A real-time ultrasonic flow probe (2 mm; Transonic Systems Inc., Ithica, NY, USA) encircled the right common carotid artery to measure cerebral blood flow. A Millar® catheter (MPVS Ultra1, ADInstruments, Houston, TX, USA) was inserted into the left ventricle via the left common carotid artery for continuous measurement of stroke volume, ejection fraction, end-diastolic and -systolic volumes, left ventricular pressure, and left ventricular contractile function (dP/dtmax, dP/dtmin).\nFollowing surgical instrumentation, piglets were placed in the supine position and allowed to recover from surgical instrumentation until baseline hemodynamic measures were stable (minimum one hour). Ventilator rate was adjusted to maintain the partial arterial CO2 between 35–45 mmHg, as determined by periodic arterial blood gas analysis. A Hewlett Packard 78833B monitor (Hewlett Packard Co., Palo Alto, CA, USA) was used for the continuous measurement of heart rate, mean systemic arterial pressure (MAP), systemic systolic and diastolic arterial pressure, and percutaneous oxygen saturation throughout the experiment.\nCerebral oxygenation (crSO2) was measured using the Invos^TM Cerebral/Somatic Oximeter Monitor (Invos 5100, Somanetics Corp., Troy, MI, USA), which calculates crSO2 and expresses values as the percentage of oxygenated haemoglobin (oxygenated haemoglobin/total haemoglobin). The sensors were placed on the right forehead of the piglet and secured with wrap and tape. A slim cap provided light shielding. Regional oxygen saturation values were recorded every second at a sample rate of […].\nas §1\nDemographics of study piglets were recorded. […]"}, "[4]": {"test": "Plasma vasopressin concentrations and pharmacokinetics after IV or IM vasopressin", "format": "in vivo, neonatal piglets", "conditions": "for level at 1 min / level at 5 min / level at 10 min / AUC(0-t): pig, plasma, n = 5/group, median (IQR); for level at 1 min: 1 min after administration; for level at 1 min / level at 5 min / level at 10 min: arterial blood, read-out: Plasma vasopressin concentration; for level at 5 min: 5 min after administration; for level at 10 min: 10 min after administration; for AUC(0-t): neonatal piglets, read-out: Area under the curve from baseline to 10 min (AUC0–10) (converted)", "experimental": "as §1\nDemographics of study piglets were recorded. Transonic flow probes, heart rate, and pressure transducer outputs, and Millar catheter were digitized and recorded with LabChart® 8.1.30, programming software (ADInstruments, Houston, TX, USA). Plasma vasopressin concentrations and pharmacokinetic parameters were quantified and analyzed as previously described. Reported plasma vasopressin concentrations only represent exogenous arginine vasopressin. Since pigs produce lysine vasopressin, endogenous vasopressin concentrations could not be quantified.\nThe data are presented as mean (standard deviation—SD) for normally distributed continuous variables and median (interquartile range—IQR) when the distribution was skewed. The data was tested for normality (Shapiro–Wilk and Kolmogorov–Smirnov test) and compared using either Student’s t-test (data normally distributed), Rank Sum if data were skewed, one- and two-way ANOVA with Dunnett post-test, or Fisher’s exact test for categorical variables. Both Hedges’ g and Cliff’s delta (δ) were reported as standardized measures of effect size as appropriate for parametric and non-parametric data, respectively. Pearson or Spearman’s correlations were reported for parametric or non-parametric data, respectively. p-values are 2-sided and p < 0.05 was considered statistically significant. Statistical analyses were performed with SigmaPlot (Systat Software Inc., San Jose, CA, USA) and R version 4.3.2."}, "[5]": {"conditions": "0.4 IU/kg IV, anesthetized piglets"}, "[6]": {"conditions": "8 IU/kg IM, anesthetized piglets"}}, "note": "Where two headings read alike, the source gives them in different places.", "data": [{"smiles": "NC(=O)CC[C@@H]1NC(=O)[C@H](Cc2ccccc2)NC(=O)[C@H](Cc2ccc(O)cc2)NC(=O)[C@@H](N)CSSC[C@@H](C(=O)N2CCC[C@H]2C(=O)N[C@@H](CCCN=C(N)N)C(=O)NCC(N)=O)NC(=O)[C@H](CC(N)=O)NC1=O", "note": "[vasopressin, arginine vasopressin]", "values": [{"measurement": "dP/dtmax", "setting": "[1]", "value": "significantly decreased"}, {"measurement": "Local tissue damage at the IM injection sites", "setting": "healthy neonatal piglets [2]", "value": "did not reveal any significant local tissue damage"}, {"measurement": "Decrease in cardiac output", "setting": "dogs; baroreceptor-denervated dogs", "value": "−22.8 (3.0) mL/kg min"}, {"measurement": "Decrease in heart rate", "setting": "dogs; baroreceptor-denervated dogs", "value": "−10 (5) beats/minute"}, {"measurement": "Decrease in cardiac output", "setting": "dogs; healthy dogs", "value": "−39.2 (3.8) mL/kg min"}, {"measurement": "Decrease in heart rate", "setting": "dogs; healthy dogs", "value": "−22 (4) beats/minute"}, {"measurement": "Brain oxygen saturation compared to baseline", "setting": "healthy neonatal piglets [3]; 0.4 IU/kg IV", "value": "Significantly lower"}, {"measurement": "dP/dtmin", "setting": "healthy neonatal piglets [3]; 0.4 IU/kg IV", "value": "no significant changes"}, {"measurement": "Stroke volume, cardiac output and ejection fraction", "setting": "healthy neonatal piglets [3]; 0.4 IU/kg IV, 1–3 min after administration", "value": "significantly lower"}, {"measurement": "Stroke volume and cardiac output", "setting": "healthy neonatal piglets [3]; 0.4 IU/kg IV, one minute after administration", "value": "significantly lower"}, {"measurement": "Carotid blood flow compared with 8 IU/kg IM", "setting": "healthy neonatal piglets [3]; 0.4 IU/kg IV, throughout the experimental period, p = 0.032", "value": "much lower"}, {"measurement": "Changes in hemodynamic parameters", "setting": "healthy neonatal piglets [3]; 4 IU/kg IM", "value": "failed to produce significant changes"}, {"measurement": "dP/dtmax (left ventricular contractile function)", "setting": "healthy neonatal piglets [3]; 8 IU/kg IM", "value": "significantly reduced"}, {"measurement": "dP/dtmin", "setting": "healthy neonatal piglets [3]; 8 IU/kg IM", "value": "no significant changes"}, {"measurement": "Changes in hemodynamic parameters", "setting": "healthy neonatal piglets [3]; 8 IU/kg IM", "value": "induced significant hemodynamic changes"}, {"measurement": "MAP, systolic and diastolic pressure", "setting": "healthy neonatal piglets [3]; 8 IU/kg IM, vs baseline", "value": "significant increases"}, {"measurement": "Plasma concentrations compared with IV vasopressin", "setting": "[4]; 4 IU/kg IM vs 0.4 IU/kg IV, p < 0.001", "value": "significantly lower"}, {"measurement": "Plasma concentrations compared with IV vasopressin", "setting": "[4]; 8 IU/kg IM, two minutes after administration", "value": "comparable to IV vasopressin"}, {"measurement": "level at 1 min", "setting": "[4]; [5]", "value": 2.2, "unit": "ng/mL"}, {"measurement": "level at 5 min", "setting": "[4]; [5]", "value": 1.74, "unit": "ng/mL"}, {"measurement": "level at 10 min", "setting": "[4]; [5]", "value": 1.34, "unit": "ng/mL"}, {"measurement": "AUC(0-t)", "setting": "[4]; 0.4 IU/kg IV", "value": 0.266, "unit": "ng·h/mL"}, {"measurement": "AUC(0-t)", "setting": "[4]; 4 IU/kg IM", "value": 0.155, "unit": "ng·h/mL"}, {"measurement": "level at 1 min", "setting": "[4]; 8 IU/kg IM, anesthetized piglets 1–3 days old, exogenous arginine vasopressin only", "value": 0.39, "unit": "ng/mL"}, {"measurement": "level at 5 min", "setting": "[4]; [6]", "value": 2.64, "unit": "ng/mL"}, {"measurement": "level at 10 min", "setting": "[4]; [6]", "value": 2.83, "unit": "ng/mL"}, {"measurement": "AUC(0-t)", "setting": "[4]; 8 IU/kg IM", "value": 0.339, "unit": "ng·h/mL"}]}]}
